Data on two compounds can be found in ChEMBL document CHEMBL1201862, “PubChem BioAssay data set” (2004).

The structures appear in SMILES notation. Active and inactive are the calls of the source.

Assay [1] can be described thus: Counterscreen for AddAB inhibitors: absorbance-based bacterial cell-based high throughput dose response assay for inhibitors of bacterial viability. [Related pubchem assays (depositor defined):AID435030, AID449728, AID449731, AID488942, AID488955, AID488956]. It counts as functional. (In general: The purpose of a counterscreen is to sort out artefacts and off-target activity.)

In assay [2] the target is 72 kDa type IV collagenase (Homo sapiens, UniProt P08253). The assay is described as follows: Dose Response validation of uHTS RPN11 inhibitor hits using a MMP-2 Fluorescence assay. It counts as functional.
The target of assay [3] is Prothrombin (Bos taurus, UniProt P00735). Description: thrombin protease inhibitors – biochemical, fluorescence polarization, uHTS hits, dose response (AID 602369). It counts as functional. In general terms: Fluorescence polarisation rises when a labelled molecule tumbles more slowly, as on binding a larger partner.
Assay [4] addresses T1, Rac GTPase-activating protein 1 (Homo sapiens, UniProt Q9H0H5).
T1 sequence (Q9H0H5 whole entry): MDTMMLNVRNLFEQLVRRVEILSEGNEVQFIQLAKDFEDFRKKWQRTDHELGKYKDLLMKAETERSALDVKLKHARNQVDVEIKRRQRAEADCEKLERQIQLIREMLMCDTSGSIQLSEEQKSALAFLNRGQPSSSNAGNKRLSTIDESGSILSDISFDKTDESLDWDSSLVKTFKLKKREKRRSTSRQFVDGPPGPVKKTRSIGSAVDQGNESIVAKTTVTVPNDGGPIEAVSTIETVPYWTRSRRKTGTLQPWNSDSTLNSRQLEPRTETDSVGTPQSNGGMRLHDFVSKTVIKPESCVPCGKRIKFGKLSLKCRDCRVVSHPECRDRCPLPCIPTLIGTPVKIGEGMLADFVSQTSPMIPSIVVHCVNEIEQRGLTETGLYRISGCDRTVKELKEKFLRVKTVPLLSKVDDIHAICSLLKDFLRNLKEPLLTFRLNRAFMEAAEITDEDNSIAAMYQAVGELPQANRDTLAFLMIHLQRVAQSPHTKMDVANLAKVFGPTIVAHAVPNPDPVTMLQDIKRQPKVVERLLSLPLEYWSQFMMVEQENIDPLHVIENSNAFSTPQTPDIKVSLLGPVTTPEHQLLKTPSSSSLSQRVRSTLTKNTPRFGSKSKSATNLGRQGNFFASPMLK
Description: blockers of MgcRacGAP-driven Rac1 GTP hydrolysis – biochemical, ADP Hunter fluorescence, primary and confirmatory, confirmation (AID 624330). It counts as functional.

The target of assay [5] is T2, Sentrin-specific protease 7 (Homo sapiens, UniProt Q9BQF6).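 Note: Luminescence-based dose-response confirmation of ultra-high-throughput screening hits, measuring inhibition of SENP7.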
T2 sequence (Q9BQF6 whole entry): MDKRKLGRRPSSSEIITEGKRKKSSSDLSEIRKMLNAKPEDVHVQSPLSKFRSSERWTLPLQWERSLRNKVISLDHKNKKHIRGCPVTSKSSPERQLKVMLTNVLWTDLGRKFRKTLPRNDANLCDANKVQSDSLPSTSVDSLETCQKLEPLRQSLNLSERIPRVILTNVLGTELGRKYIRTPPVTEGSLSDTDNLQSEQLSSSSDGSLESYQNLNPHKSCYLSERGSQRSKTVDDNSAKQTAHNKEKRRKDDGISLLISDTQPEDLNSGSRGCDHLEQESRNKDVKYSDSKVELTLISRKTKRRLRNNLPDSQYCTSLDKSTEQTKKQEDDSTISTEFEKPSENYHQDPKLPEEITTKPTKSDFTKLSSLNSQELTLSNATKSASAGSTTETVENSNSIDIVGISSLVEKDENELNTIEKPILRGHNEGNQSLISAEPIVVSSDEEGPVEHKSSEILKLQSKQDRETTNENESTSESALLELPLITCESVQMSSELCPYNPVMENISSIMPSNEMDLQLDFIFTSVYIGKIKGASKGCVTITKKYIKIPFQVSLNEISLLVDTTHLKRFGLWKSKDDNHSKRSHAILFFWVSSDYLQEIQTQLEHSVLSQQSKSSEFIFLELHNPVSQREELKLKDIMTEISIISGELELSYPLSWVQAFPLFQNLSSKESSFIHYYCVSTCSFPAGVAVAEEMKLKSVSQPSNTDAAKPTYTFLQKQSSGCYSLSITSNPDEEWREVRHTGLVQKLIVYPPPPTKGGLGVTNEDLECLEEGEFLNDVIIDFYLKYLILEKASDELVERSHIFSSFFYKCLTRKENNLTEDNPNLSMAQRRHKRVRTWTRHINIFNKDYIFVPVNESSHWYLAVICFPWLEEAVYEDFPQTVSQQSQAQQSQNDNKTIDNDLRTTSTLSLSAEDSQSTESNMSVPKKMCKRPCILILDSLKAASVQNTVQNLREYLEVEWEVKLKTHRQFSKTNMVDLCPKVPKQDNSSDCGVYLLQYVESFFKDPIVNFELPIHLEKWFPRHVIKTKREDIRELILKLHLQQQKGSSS
It counts as functional.

The target of assay [6] is T3, Sentrin-specific protease 8 (Homo sapiens, UniProt Q96LD8).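 Note: luminescence read-out of SENP8 inhibition, dose-response confirmation following an ultra-high-throughput screen.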
T3 sequence (Q96LD8 whole entry): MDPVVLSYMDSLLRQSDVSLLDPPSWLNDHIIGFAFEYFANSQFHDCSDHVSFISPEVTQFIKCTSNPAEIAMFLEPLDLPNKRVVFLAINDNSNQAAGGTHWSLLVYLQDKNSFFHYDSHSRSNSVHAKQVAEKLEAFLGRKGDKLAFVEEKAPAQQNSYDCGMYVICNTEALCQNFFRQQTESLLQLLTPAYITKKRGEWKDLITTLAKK
It counts as functional.

The target of assay [7] is Dual specificity tyrosine-phosphorylation-regulated kinase 1A (Rattus norvegicus, UniProt Q63470). It counts as biochemical, Homo sapiens.
Assay [8] has as its target T4, Tyrosyl-DNA phosphodiesterase 2 (Homo sapiens, UniProt O95551).
T4 sequence (O95551 whole entry): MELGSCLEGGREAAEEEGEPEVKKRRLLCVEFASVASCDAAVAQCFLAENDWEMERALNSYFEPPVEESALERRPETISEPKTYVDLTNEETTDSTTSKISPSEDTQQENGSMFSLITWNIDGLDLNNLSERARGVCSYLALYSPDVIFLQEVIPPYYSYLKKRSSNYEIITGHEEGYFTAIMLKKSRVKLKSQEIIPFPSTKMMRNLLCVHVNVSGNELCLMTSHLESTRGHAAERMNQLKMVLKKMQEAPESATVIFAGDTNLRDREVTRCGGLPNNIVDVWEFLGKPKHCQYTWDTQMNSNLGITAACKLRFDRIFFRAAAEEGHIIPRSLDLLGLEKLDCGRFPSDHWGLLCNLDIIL
Description: potency against TDP2 phosphodiesterase activity – biochemical, epi absorbance, IC50, dose response (AID 743297).

As a reminder, the IC50 is the concentration that gives 50% inhibition. As a reminder, the AC50 is the midpoint of the concentration-response curve, whichever way the signal moves.

Chain of 72 kDa type IV collagenase (P08253 whole entry): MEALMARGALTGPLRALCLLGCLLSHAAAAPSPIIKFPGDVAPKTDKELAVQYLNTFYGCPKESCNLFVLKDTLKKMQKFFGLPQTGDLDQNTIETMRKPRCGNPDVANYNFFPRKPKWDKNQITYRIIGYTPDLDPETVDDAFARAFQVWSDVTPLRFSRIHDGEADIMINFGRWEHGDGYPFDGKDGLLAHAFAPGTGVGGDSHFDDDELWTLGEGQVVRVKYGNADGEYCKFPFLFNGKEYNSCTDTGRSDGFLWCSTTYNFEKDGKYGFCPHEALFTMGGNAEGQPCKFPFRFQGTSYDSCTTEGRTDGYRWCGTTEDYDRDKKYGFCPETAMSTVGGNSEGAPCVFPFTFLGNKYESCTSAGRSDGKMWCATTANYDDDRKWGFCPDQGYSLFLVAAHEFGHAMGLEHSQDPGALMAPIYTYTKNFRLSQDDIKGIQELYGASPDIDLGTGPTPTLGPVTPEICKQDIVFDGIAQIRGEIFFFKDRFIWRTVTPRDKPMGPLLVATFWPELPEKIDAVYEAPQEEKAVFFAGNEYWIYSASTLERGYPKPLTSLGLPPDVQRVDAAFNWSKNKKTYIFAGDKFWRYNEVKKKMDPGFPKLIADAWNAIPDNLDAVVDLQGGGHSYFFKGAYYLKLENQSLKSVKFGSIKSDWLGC

As for `O=[N+]([O-])c1ccc(N/N=C/c2ccc[nH]2)cc1`, the IC50 in assay [1] is > 119 µM (inactive); in assay [2] it was 70.3 µM (active); in assay [3], 9.84 µM (active); in assay [4], 44.5 µM (active).

As for `CC(=O)N(/N=C1\Sc2ccccc2C1=O)c1cccc(C)c1`, the IC50 in assay [5] was 13.8 µM (active); in assay [6] it was 11.7 µM (active); in assay [8] it was 6.48 µM (active). In addition, the concentration at half-maximal activity (AC50) in assay [7] was 28.1 µM (active).
